Data published in paper PMC4585962, “A peptide factor secreted by Staphylococcus pseudintermedius exhibits properties of both bacteriocins and virulence factors” (Scientific Reports, 2015).
No end group written: not given here. *: point of attachment. For = O=C*

What was measured:
HeLa cells = assay: Cytotoxicity, LDH and MTT assays; type: cell-based, human; details: 4 h exposure, said to be similar to the other cell types (Fig. S7)
Description: Human skin fibroblasts (HSF, ATCC CRL-2522), adipose-derived stem cells (ASCs, ATCC PCS-500-011), and HeLa human epithelioid cervix carcinoma cells (ATCC CCL-2) were maintained in Dulbecco’s modified Eagle’s medium (DMEM, Sigma) containing 1 g/l glucose, 10% (v/v) foetal bovine serum (FBS), 1 U/ml penicillin, 1 μg/ml streptomycin, and 2.5 μg/ml amphotericin B. Murine P388/D1 monocyte/macrophage cells (ATCC CCL-46) and murine RAW264.7 macrophage-like cells (ATCC TIB-71) were cultured in DMEM containing 4.5 g/l glucose, 5% (v/v) FBS, and antibiotics, as indicated above. Keratinocytes from human skin were grown in KBM Gold Medium (Lonza). All cells were incubated in standard conditions (5% CO2, 37 °C, >95% humidity). […] After a 30-min incubation (RT, in the dark), the reaction was stopped, and the absorbance was measured with a microplate reader (PowerWave X, BioTek Instruments) at 490 nm, followed by subtraction of the absorbance reference value at 690 nm. […] The absorbance of solubilized purple formazan was measured at 540 nm, followed by subtraction of the absorbance reference value at 690 nm. […] The amount of released haemoglobin was spectrophotometrically determined at 540 nm and compared with a positive control (erythrocytes lysed with 1% sodium dodecyl sulphate).

[1] = biological target: T1, pepsin from porcine gastric mucosa (Sus scrofa, UniProt P00791); assay: Susceptibility to proteolysis, residual bactericidal activity; type: in vitro ADME; details: 30 μM peptide, 100 mM ammonium acetate pH 4.0, enzyme:peptide 1:50 or 1:10 (w/w), 3 hours, 37 °C; residual activity by radial diffusion assay on B. subtilis; triplicate
T1 construct: purchased Sigma; host or cells: porcine gastric mucosa
Description: (§1) The bactericidal activity of BacSp222 was also determined using the radial diffusion assay. In TSB agar (1%, w/v) containing a 200× diluted overnight culture of Bacillus subtilis ATCC 6633, wells of 2.4-mm diameter were created by drilling out the agar and filling the hole with 10 μl of the BacSp222 preparation for testing. Following overnight incubation at 37 °C, the bactericidal activity was measured as the area of the inhibition zones.
(§2) The temperature stability of BacSp222 (30 μM final concentration) was determined in PBS. The solution was incubated for 1 or 3 h at 72 °C (typical temperature of pasteurization) or at 100 °C. Independently, a solution of bacteriocin was also subjected to a full cycle of autoclaving (20 min at 121 °C). The susceptibility of BacSp222 to proteolysis was verified using S. aureus staphopain C and V8 peptidase, human neutrophil elastase, human cathepsin G (Biocentrum), bovine TPCK-treated trypsin, pepsin from porcine gastric mucosa (Sigma), and proteinase K (A&A Biotechnology). The dried samples of BacSp222 were dissolved to a final concentration of 30 μM in the following buffers: 100 mM Tris-HCl pH 8.0 containing 5 mM CaCl2 (for trypsin and proteinase K), 100 mM Tris-HCl pH 7.5 containing 5 mM cysteine hydrochloride and 5 mM EDTA (for staphopain C), 100 mM Tris-HCl pH 8.0 (for elastase), 100 mM Tris-HCl pH 7.5 containing 500 mM NaCl (for cathepsin G), 100 mM sodium phosphate pH 7.8 (for V8 peptidase), and 100 mM ammonium acetate pH 4.0 (for pepsin). The peptidases were added at 1:50 or 1:10 (enzyme:BacSp222) ratios by weight, and the mixtures were incubated for 1 or 3 h at 37 °C. The residual activity was determined with the radial diffusion assay using Bacillus subtilis as an indicator strain. All of the above experiments were performed in triplicate.

human cathepsin G = biological target: T2, human cathepsin G (Homo sapiens, UniProt P08311); assay: as above; type: in vitro ADME; details: 30 μM peptide, 100 mM Tris-HCl pH 7.5 with 500 mM NaCl, enzyme:peptide 1:50 or 1:10 (w/w), 3 hours, 37 °C; residual activity by radial diffusion assay on B. subtilis; triplicate
T2 construct: purchased Biocentrum
Description: as §1, §2

[2] = Temperature stability, residual bactericidal activity; type: physicochemical; details: 30 μM in PBS, full cycle of autoclaving, 20 min at 121 °C; radial diffusion assay on B. subtilis; 100% = untreated BacSp222; triplicate ± SD
Description: as §1
The temperature stability of BacSp222 (30 μM final concentration) was determined in PBS. The solution was incubated for 1 or 3 h at 72 °C (typical temperature of pasteurization) or at 100 °C. Independently, a solution of bacteriocin was also subjected to a full cycle of autoclaving (20 min at 121 °C). The susceptibility of BacSp222 to proteolysis was verified using S. aureus staphopain C and V8 peptidase, human neutrophil elastase, human cathepsin G (Biocentrum), bovine TPCK-treated trypsin, pepsin from porcine gastric mucosa (Sigma), and proteinase K (A&A Biotechnology). […] The residual activity was determined with the radial diffusion assay using Bacillus subtilis as an indicator strain. […]

[3] = Hydrodynamic diameter by dynamic light scattering; type: physicochemical; details: 0.2 mg/ml in PBS, room temperature, filtered 0.2 μm, average of three independent measurements; suggests elongated shape or dimers
Description: The hydrodynamic diameter of the BacSp222 molecule was determined at room temperature by the dynamic light scattering (DLS) technique using a Zetasizer Nano ZS apparatus (Malvern Instruments); a 0.2 mg/ml solution of the peptide in phosphate buffered saline (PBS) was used for analysis. Prior to measurements, the solution was filtered through a 0.2 μm bioinert membrane (Sigma). The obtained spectra were averaged over three independent measurements. The size of BacSp222 was also evaluated by gel filtration chromatography using a Superdex Peptide 10/300 GL column (GH Healthcare) operated in PBS with a 0.3 ml/min flow rate.

T2 sequence (P08311 21-255): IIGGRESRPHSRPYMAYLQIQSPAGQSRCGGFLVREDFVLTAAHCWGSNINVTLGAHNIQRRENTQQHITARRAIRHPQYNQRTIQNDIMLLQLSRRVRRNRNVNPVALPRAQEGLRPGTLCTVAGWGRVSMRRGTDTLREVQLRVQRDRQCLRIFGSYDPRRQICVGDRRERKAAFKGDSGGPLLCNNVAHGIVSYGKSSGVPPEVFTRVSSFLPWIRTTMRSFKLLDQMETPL
T1 sequence (P00791 60-385): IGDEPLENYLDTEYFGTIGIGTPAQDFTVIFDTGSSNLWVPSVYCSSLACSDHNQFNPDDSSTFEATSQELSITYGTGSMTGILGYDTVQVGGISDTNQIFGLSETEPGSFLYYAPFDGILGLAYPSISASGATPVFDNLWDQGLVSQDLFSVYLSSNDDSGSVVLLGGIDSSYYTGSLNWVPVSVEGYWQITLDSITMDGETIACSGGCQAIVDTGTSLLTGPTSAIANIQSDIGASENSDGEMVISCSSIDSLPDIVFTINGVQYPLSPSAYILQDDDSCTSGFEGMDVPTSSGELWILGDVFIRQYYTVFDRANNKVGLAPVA

In the case of “For-MAGLLRFLLSKGRALYNWAKSHVGKVWEWLKSGATYEQIKEWIENALGWR [BacSp222]”, the cytotoxic effect (HeLa cells) is reported as “sigmoidal, dose-dependent cytotoxic effect”, the “activity of BacSp222 after incubation with the enzyme” value [1] is reported as “not significantly reduced” and the “activity of BacSp222 after incubation with the enzyme” value (human cathepsin G) is reported as “not significantly reduced”. The “activity against the indicator strain after autoclaving” value [2] was 55 ± 8.8% and the “hydrodynamic diameter estimated by DLS” value [3] was 3.68 nm.
